Tests used:
[1] = molecular target: T1, GppNHp-loaded KRAS4b (amino acids 1-169) G12C/C118S (Homo sapiens, UniProt P01116, C118S/G12C); experiment: MALDI-TOF MS covalent Cys12 modification, GppNHp-loaded KRAS G12C; assay type: binding; conditions: 15 minutes reaction time, 1 μM protein, 1:2.5 protein to compound ratio
T1 construct: KRAS4b (amino acids 1-169) G12C/C118S protein; made in house
Procedure: (§1) MALDI-TOF MS analysis was performed using 1 μM protein target, and 1:2.5 protein to compound ratio was used.
(§2) Reaction: 1 μM of GppNHp, GTP, or GDP-loaded KRAS4b (amino acids 1-169) G12C/C118S protein (produced in-house by Protein Expression Laboratory, FNLCR/Leidos Biomed) in 20 mM 4-(2-hydroxyethyl)-1-piperazineethanesulfonic acid (HEPES) buffer containing 150 mM NaCl, 1 mM MgCl2, pH 7.3 was prepared freshly before assay. Ten-μL aliquots of protein were dispensed onto low volume 384-well plate, then 375 nL DMSO, and 25 nL of tested compounds from 5 mM DMSO stocks were added to appropriate wells using ECHO 555 acoustic liquid handler (Labcyte Inc.). For each reaction/assay, three blanks were prepared by mixing 10 μL of protein solution with 400 nL DMSO. The contents of the wells were carefully mixed by aspiration, and then each plate was sealed with an adhesive cover, centrifuged at 2000 g for 1 minute, and kept in the dark at room temperature until 5 min, 15 min, 30 min, 2 h, or 6 h collections.
(§3) Target pretreatment: Before each assay MALDI target (Bruker MPT 384 ground steel BC) was pre-treated by pipetting on each spot 0.75 μL of saturated sinapinic acid in acetonitrile (ACN).
(§4) Sample preparation: At collection time point, 2 μL of reaction mixtures were pipetted out into 20 μL MALDI matrix solution (saturated solution of sinapinic acid in 1:1 ACN:water solution containing 0.75% trifluoroacetic acid (TFA)) deposited on 384 well polypropylene plate. Resulting solution was mixed by aspiration, centrifuged at 2000 g for 1 minute, then 1 μL aliquots were dispensed on pre-treated MALDI target using Beckman Coulter Biomek FX^P 96/384-Span-8 Laboratory Automation Workstation. Finally, the MALDI target was dried under mild vacuum to produce spots with fine crystalline structure.
(§5) Measurements: MALDI-TOF measurements were performed on a Bruker Daltonics rapifleX Tissuetyper TOF-TOF mass spectrometer using linear mode and mass range from 18.6 to 21.6 kDa. Detector gain was set to 3.3× (483 V), sample rate to 5 GS/s, real time smoothing to medium (175 MHz), laser smart beam pattern was set to: “MS Thin Layer M5”, and the laser frequency was 10000 Hz. Spectra were automatically collected using custom AutoXecute method. Laser power was auto adjusted using fuzzy control. The peak selection range was set to be between 19000 and 21500 Da. Peak evaluation uses half width parameter set to be smaller than 40 Da for processed spectrograms (centroid peak detection: smoothed by SavitzkyGolay algorithm using 7 m/z width and 2 cycles; baseline was subtracted using median algorithm with flatness 1 and median level 0.01). Fuzzy control used Proteins/Oligonucleotides protocol with minimum half width 1/10 times above threshold. Up to 40000 satisfactory shots were collected in 10000 shot steps. Dynamic termination was implemented to finish data collection when peak signal/noise ratio reached a value of 50.
(§6) Spectra processing: Spectra were smoothed by SavitzkyGolay algorithm using 7 m/z width and three cycles. Centroid peak detection algorithm was used with signal to noise threshold set to 6, relative intensity threshold 4%, peak width 10 m/z and median baseline subtraction using flatness of 1 and median level of 0.01. Peak intensity and area under the peak were evaluated and recorded for all peaks between 19,300 Da and 21,550 Da.
(§7) Calculation of percent modification: Percent modification was calculated as a ratio of peak height for protein modified by compound to sum of peak height of remaining protein plus peak height for protein modified by compound. If multiple modifications were observed each was calculated as a ratio of peak height for given modification versus sum of peak heights for all observed protein species. Data reported in Table 5 are from the 15 minutes reaction time point.

[2] = molecular target: T2, GDP-loaded KRAS4b (amino acids 1-169) G12C/C118S (Homo sapiens, UniProt P01116, C118S/G12C); experiment: MALDI-TOF MS covalent Cys12 modification, GDP-loaded KRAS G12C; assay type: binding; conditions: 15 minutes reaction time, 1 μM protein, 1:2.5 protein to compound ratio
T2 construct: KRAS4b (amino acids 1-169) G12C/C118S protein; made in house
Procedure: as §1, §2, §3, §4, §5, §6, §7

[3] = molecular target: T3, Avi-KRAS G12C (1-169) GppNHp/RAF1 RBD-3×FLAG (52-151) (Homo sapiens, UniProt P01116, G12C); experiment: KRAS G12C-effector (RAF1 RBD) protein:protein interaction HTRF disruption assay; assay type: biochemical; conditions: PPI HTRF
T3 construct: Avi-KRAS G12C (1-169) GppNHp
Procedure: A protein:protein interaction (PPI) Homogeneous Time Resolved Fluorescence (HTRF) assay was used to determine the effectiveness of compounds of the present disclosure in disrupting KRAS G12C protein and effector (RAF1) binding.
The HTRF assay used the following reagents and proteins: 50 nM Avi-KRAS G12C (1-169) GppNHp/RAF1 RBD-3×FLAG (52-151); 75 nM Avi-RAF1 RBD-3×FLAG; Assay Buffer: 50 mM Tris pH 7.5, 100 mM NaCl, 5 mM MgCl2, 0.1% BSA, 0.01% Tween 20, 10% DMSO; Bead Buffer: 50 mM Tris pH 7.5, 0.01% Tween 20; Assay volume: 20 μL (384 well plate-low volume format); and Compound titration: 30-0.02 μM, 3× dilution series.
The HTRF assay employed the following protocol:
Compounds were dispensed in assay plate (384-well, Grenier Bione #784075) using Echo (model 555) with dose response settings: 200 nL final volume, titration from 100 μM as a 10-point dilution series. KRAS proteins were prepared in assay buffer, and dispensed on plates, 5 μL per well, then incubated for 1 h at room temperature, with 700 rpm shaking. RAF1 RBD were prepared in assay buffer, dispensed onto plates, 5 μL per well, and then incubated for 1 h at room temperature, with 700 rpm shaking. Reagent mix was then prepared and dispensed on plates, 10 μL per well, and then incubated for 1 h at room temperature, with 700 rpm shaking.
Plates were analyzed on an Envision plate reader using the following setting: Excitation 320 nm, Bandwidth 75 nm, Emission 615 nm, Bandwidth 85 nm; Gain 100%; Flashes 100; Lag 60 μs. Data was reported as percentage of activity, with DMSO as 100%. Data was plotted and analyzed using Prism 8.

[4] = molecular target: T4, GTP-loaded KRAS4b (amino acids 1-169) G12C/C118S (Homo sapiens, UniProt P01116, C118S/G12C); experiment: MALDI-TOF MS covalent Cys12 modification, GTP-loaded KRAS G12C; assay type: binding; conditions: 15 minutes reaction time, 1 μM protein, 1:2.5 protein to compound ratio
T4 construct: KRAS4b (amino acids 1-169) G12C/C118S protein; made in house
Procedure: as §1, §2, §3, §4, §5, §6, §7

pERK in NCI-H358 cells = experiment: Cell-based pERK HTRF assay; conditions: Homo sapiens, 0.5 h, 30 min incubation
Procedure: pERK HTRF assays (Perkin Elmer) were used to determine the effectiveness of compounds of the present disclosure in disrupting KRAS G12C protein/effector signaling in cells.
On Day 1, cells (NCI-H358) were seeded into 96-well plates at 4×10^4 cells/well in complete growth media (RPMI, 10% FBS).
On Day 2, cells were treated with compounds at 0.25% DMSO. The source plate was created with compounds diluted in media at 5-fold the final assay concentration. The compounds were run in a 9-point concentration curve starting at 75 μM, with a 3-fold dilution between concentrations. 20 μL was transferred onto the cell plates (final volume in wells was 100 μL). Plates were harvested after 30 min incubation by aspirating media and adding kit-supplied 1× supplemented lysis buffer to all wells (75 μL per well). Plates were then placed on a plate shaker and incubated at 850 rpm for an additional 30 min.
Antibody mixture solution was prepared by diluting aliquoted d2 and Eu Cryptate antibodies 1:20 in kit supplied detection buffer, then mixed the diluted antibodies solutions (1:1 v:v). 4 μL of this solution was then added to a 384-well detection plate (Perkin Elmer; 6008230).
Samples were homogenized by pipetting up and down and then transferred (16 μL of cell lysates) from the 96-well cell culture plate to two wells of the HTRF 384-well detection plate containing the antibody solution. Plates were centrifuged (524 g for 1 min) and allowed to incubate between 4 and 24 h at room temperature. Maximum signal is reached after 4 h incubation time and remains stable over a period of 24 hours. Therefore, readings can be made between 4 and 24 h of incubation. Plates were centrifuged again (524 g for 1 min) and analyzed on the EnVision plate reader using the following settings: Excitation 320 nm, Bandwidth 75 nm; Emission 615 nm, Bandwidth 85 nm; Gain 100%; Flashes 100; Lag 60 μs.

GppNHp-KRAS G12C percent of modification [1] | GDP-KRAS G12C percent of modification [2] | IC50 [3] | GTP-KRAS G12C percent of modification [4] | IC50 (pERK in NCI-H358 cells) | Compound
B (50% percent of modification <70%) | A (percent of modification ≥70%) | ≤ 500 nM | D (percent of modification <10%) | ≤ 100 nM | C=CC(=O)N1C[C@H](C)N(c2nc(OC[C@@]34CCCN3C[C@H](F)C4)nc3c(F)c(-c4ccc(F)c5sc(N)c(C#N)c45)ncc23)C[C@H]1C [Compound 7, 2-amino-4-[4-[(2S,5R)-2,5-dimethyl-4-prop-2-enoyl-piperazin-1-yl]-8-fluoro-2-[[(2R,8S)-2-fluoro-1,2,3,5,6,7-hexahydropyrrolizin-8-yl]methoxy]pyrido[4,3-d]pyrimidin-7-yl]-7-fluoro-benzothiophene-3-carbonitrile]
A (percent of modification ≥70%) | A (percent of modification ≥70%) | ≤ 500 nM | A (percent of modification ≥70%) | 100 to 1000 nM | C=CC(=O)N1CCC(N(CC)c2nc(OC[C@@]34CCCN3C[C@H](F)C4)nc3c(F)c(-c4ccc(F)c5sc(N)c(C#N)c45)ncc23)[C@H]1CC (stereo partly shown) [Compound 40]
A (percent of modification ≥70%) | A (percent of modification ≥70%) | ≤ 500 nM | – | > 1000 nM | C=CC(=O)N1CC[C@@H](N(C)c2nc(OC[C@@]34CCCN3C[C@H](F)C4)nc3c(F)c(-c4ccc(F)c5sc(N)nc45)ncc23)C1 [Compound 4]
D (percent of modification <10%) | C (10%≤percent of modification <50%) | – | D (percent of modification <10%) | > 1000 nM | C=CC(=O)N1CCC(N(C)c2nc(OC)nc3c(F)c(-c4ccc(F)c5sc(N)c(C#N)c45)ncc23)[C@H]1C (stereo partly shown) [Compound 32]
D (percent of modification <10%) | C (10%≤percent of modification <50%) | – | D (percent of modification <10%) | > 1000 nM | C=CC(=O)N1CCC(N(C)c2nc(OCCO)nc3c(F)c(-c4ccc(F)c5sc(N)c(C#N)c45)ncc23)[C@H]1C (stereo partly shown) [Compound 35]
D (percent of modification <10%) | C (10%≤percent of modification <50%) | – | D (percent of modification <10%) | > 1000 nM | C=CC(=O)N1CCC(N(C)c2nc(OCCOC)nc3c(F)c(-c4ccc(F)c5sc(N)c(C#N)c45)ncc23)[C@H]1C (stereo partly shown) [Compound 31]
D (percent of modification <10%) | C (10%≤percent of modification <50%) | – | D (percent of modification <10%) | > 1000 nM | C=CC(=O)N1CCC(N(C)c2ncnc3c(F)c(-c4ccc(F)c5sc(N)c(C#N)c45)ncc23)[C@H]1C (stereo partly shown) [Compound 36]
A (percent of modification ≥70%) | A (percent of modification ≥70%) | – | A (percent of modification ≥70%) | 100 to 1000 nM | C=CC(=O)N1CCC(N(C)c2nc(OC[C@@H]3CCCN3C)nc3c(F)c(-c4ccc(F)c5sc(N)c(C#N)c45)ncc23)[C@H]1C (stereo partly shown) [Compound 22]
A (percent of modification ≥70%) | A (percent of modification ≥70%) | – | A (percent of modification ≥70%) | 100 to 1000 nM | C=CC(=O)N1CCC(N(C)c2nc(OC[C@@H]3CCCN3C)nc3c(F)c(-c4ccc(F)c5sc(N)c(C#N)c45)ncc23)[C@H]1COC (stereo partly shown) [Compound 26]
A (percent of modification ≥70%) | A (percent of modification ≥70%) | – | A (percent of modification ≥70%) | 100 to 1000 nM | C=CC(=O)N1CCC(N(C)c2nc(OC[C@@H]3CC4(CC4)CN3C)nc3c(F)c(-c4ccc(F)c5sc(N)c(C#N)c45)ncc23)[C@H]1COC (stereo partly shown) [Compound 21]
A (percent of modification ≥70%) | A (percent of modification ≥70%) | – | A (percent of modification ≥70%) | 100 to 1000 nM | C=CC(=O)N1CCC(N(C)c2nc(OC[C@@H]3CC4(CC4)CN3C)nc3c(F)c(-c4ccc(F)c5sc(N)c(C#N)c45)ncc23)[C@H]1C (stereo partly shown) [Compound 24]

Source: patent US20250270206A1, “COMPOSITIONS AND METHODS FOR INHIBITION OF RAS” (TheRas, Inc., priority 2022, published 2025)
